One test concerns SNB-75. The experiment in a line: NCI60 cell line response to SA, SNB-75. Particulars: SNB-75, doubling time 62.8 hours. The test is classed as cell-based, human.
Test [1] concerns sporadic MPNST STS26T cells. The experiment in a line: XTT cell proliferation assay, STS26T. The test is classed as cell-based, human. On the procedure: (§1) XTT Cell Proliferation Assay: Cells were seeded into 96-well plates at a density of 2,000 cells/well and allowed to reattach overnight. Cells were treated with SA, synthetic analogs, camptothecin (NCI Chemotherapeutics Repository, Md., USA), or DMSO control at the indicated concentrations continuously for 48 hours followed by assay in the 96-well plate for relative viable cell number using the dye […] (XTT) and a Wallac-Victor 2 plate reader (Perkin-Elmer, Waltham, Mass., USA). Absorbance was determined at 450 nm with 650 nm as a reference reading. Primary astrocytes were additionally assayed at a 96 hour time point.
Cell lines and culture: Human MPNST cell lines (STS26T and T265) were obtained from the Pediatric Oncology Branch, NCI (Bethesda, Md., USA).

For test [2], the system named is empty vector transduced KR158 cells. The experiment in a line: Cell morphology / actin confocal microscopy, empty vector KR158. The test is classed as cell-based, mouse. On the procedure: Constructs and Transfections: NF1-GRD retroviral constructs were obtained from Indiana University. Cells transduced with the NF1-GRD construct or PMSCV empty vector control as previously described (Hiatt et al., J. Biol. Chem., 2001, 276:7240-5) were maintained in 1 μg/mL puromycin (Sigma).
(§2) Cell Morphology Assays and Confocal Microscopy: To assay cytoskeleton morphology, KR158 cells, mouse primary astrocytes, KR158 clones expressing the NF1-GRD constructs, K14553 cells, and A549 were seeded to cover slips and allowed to reattach overnight. Cells were treated for 18 hours with either the indicated concentrations of SA, or the vehicle control DMSO. The cover slips were fixed in 3.7% paraformaldehyde, permeablized in 0.1% Triton-X100, and stained with Alexa Fluor 488-phalloidin (Invitrogen, Carlsbad, Calif., USA) to detect actin and cells were mounted in Prolong Antifade containing DAPI (Invitrogen) to stain nuclei. The cells were imaged on a LSM510 confocal microscope (Carl Zeiss Inc., Jena, Germany). For phospho-myosin light chain 2 (MLC) detection, cells were seeded to coverslips as described above. […] Actin structures were monitored continuously over a 16 hr period using confocal microscopy equipped with a growth chamber (37° C., humidified atmosphere and 5% CO2). […]

For the next test, the system named is KR158 cells. The experiment in a line: MultiTox-Fluor Multiplex Cytotoxicity Assay. The test is classed as cell-based, mouse. Particulars: 48 hrs continuous treatment. On the procedure: Cytotoxicity Assay: The MultiTox-Fluor Multiplex Cytotoxicity Assay (Promega, Madison, Wis., USA) was used according to manufacturer instructions. Briefly, KR158 cells were harvested and seeded 2,500 cells/well in a black walled 96-well plate (Corning, Lowell, Mass., USA). Cells were treated with SA or DMSO control at the indicated concentrations continuously for 48 hours followed by addition of the fluorescent substrates from the assay kit. The GF-AFC Substrate enters live cells where it is cleaved by the live-cell protease to release AFC. The bis-AAF-R110 substrate cannot enter live cells but instead is be cleaved by the dead-cell protease activity to release R110.

For test [3], the system named is A549 cells. Put plainly: Cell morphology / actin confocal microscopy, A549. The test is classed as cell-based, human. Particulars: 18 hours treatment. On the procedure:
as §2, with “above. Cells were serum starved in 0.5% FBS and SA or DMSO vehicle control for 18 hours, and then pulsed with 10 ng/mL EGF (Invitrogen) for 5 min.” for “above.”

Test [4] relates to A549 cells. Put plainly: XTT cell proliferation assay, A549. The test is classed as cell-based, human. The settings on record: 48 hours. On the procedure:
as §1

Test [5] deals with phosphorylation of Ser 19 on myosin light chain 2 (MLC2). Put plainly: Phospho-myosin light chain 2 immunostaining, KR158. Particulars: KR158 cells treated with SA and EGF. The test is classed as cell-based, mouse. On the procedure: as §2, with “above. Cells were serum starved in 0.5% FBS and SA or DMSO vehicle control for 18 hours, and then pulsed with 10 ng/mL EGF (Invitrogen) for 5 min.” for “above.”

In another test the test system is SF-268. The experiment in a line: NCI60 cell line response to SA, SF-268. Particulars: SF-268, doubling time 33.1 hours. The test is classed as cell-based, human.
For test [6], the system named is KR158 cells stably transfected with GFP-actin. Put plainly: Cell morphology / actin confocal microscopy, KR158 GFP-actin. The test is classed as cell-based, mouse. Particulars: 16-18 hrs treatment.
Protocol: Doxorubicin studies: KR158 stably transfected with GFP-actin were treated with 25 and 50 μM doxorubicin for 18 hrs continuously.
Cell Morphology Assays and Confocal Microscopy: To assay cytoskeleton morphology, KR158 cells, mouse primary astrocytes, KR158 clones expressing the NF1-GRD constructs, K14553 cells, and A549 were seeded to cover slips and allowed to reattach overnight. Cells were treated for 18 hours with either the indicated concentrations of SA, or the vehicle control DMSO. The cover slips were fixed in 3.7% paraformaldehyde, permeablized in 0.1% Triton-X100, and stained with Alexa Fluor 488-phalloidin (Invitrogen, Carlsbad, Calif., USA) to detect actin and cells were mounted in Prolong Antifade containing DAPI (Invitrogen) to stain nuclei. The cells were imaged on a LSM510 confocal microscope (Carl Zeiss Inc., Jena, Germany). […] KR158 GFP-actin transfected cells were seeded to 8-well chamber slides, allowed to reattach, and then treated with indicated concentrations of SA. Actin structures were monitored continuously over a 16 hr period using confocal microscopy equipped with a growth chamber (37° C., humidified atmosphere and 5% CO2). To compare SA to Rho/Rock inhibitors, KR158 GFP-actin cells were treated with SA or with the Rho pathway inhibitors Rock inhibitor Y-27632 (Sigma, St. Louis, Mo., USA), and the Rho inhibitor C3 transferase (Cytoskeleton, Inc., Denver, Colo., USA, cat# CT04) for 16 hrs, and then examined by confocal microscopy.
The next test deals with Rho. The experiment in a line: Rho GTPase pull-down assay. The test is classed as cell-based, mouse. Particulars: EGF pulsed KR158 cells, 12 hrs and 18 hrs. On the procedure: Rho GTPase Pull-Down Assay: The Rho pull down assay was obtained from Upstate Biolotech/Millipore (Billerica, Mass., USA, Cat#17-294). KR158 cells were harvested at approximately 80% confluency and seeded at 5×10^5 cells per well in a 6-well plate. After overnight recovery, cells were serum starved in 0.5% FBS for 18 hrs. Cells were then treated with 10 ng/mL EGF either in the presence or the absence of the indicted concentrations of SA for up to 18 hours. At the indicated time points, the cells were lysed according to the manufacturer's protocols. Proteins pulled down by the Rho-GTP binding beads were eluted by SDS, fractionated on a 10% SDS-PAGE gel, and transferred to a nitrocellulose membrane. Pre-pull-down lysates were run in parallel to determine total levels of Rho in each sample. The membrane was probed by an anti Rho antibody.

Structures are written as SMILES. Entries after “also recorded” stand apart in the source; their conditions may differ.

From patent publication US8686016B2, “Schweinfurthins and uses thereof” (The United States of America, as represented by the …, priority 2009, dated 2014) come the findings set out here.

As for `CC(C)=CCC/C(C)=C/Cc1c(O)cc(/C=C/c2cc(O)c3c(c2)C[C@@H]2C(C)(C)[C@H](O)[C@H](O)C[C@@]2(C)O3)cc1O` [SA, Schweinfurthin A], the logGI50 with SNB-75 is on record as −7.82; with SF-268 it was −5.62. Also, the inhibition of proliferation result in test [1] is “much weaker inhibition of proliferation; also recorded: are not”. Further, the F-actin structures entry in test [2] is “same reorganization of F-actin structures”. In addition, the “cell killing (dead-cell protease activity)” value in the test with KR158 cells is reported as “dose dependent increase of dead-cell protease activity; also recorded: dose dependent increase in cell killing”. Moreover, the “actin organization, phalloidin staining” value in the test on A549 cells [3] was “no visible changes in actin organization”. Moreover, the “inhibition of proliferation (percent viability versus control)” value with A549 cells [4] is “does not inhibit; also recorded: no apparent effect”. Moreover, the “MLC phosphorylation (Ser 19)” value in test [5] is “dose dependent decrease of MLC phosphorylation”. Also, the “F-actin staining / stress fibers” value in test [6] is “dramatic loss of F-actin staining”. Besides, the Rho activity entry with Rho is reported as “marked inhibition of Rho activity”.
